Data published in patent EP0872239A2 (ELI LILLY AND COMPANY, priority 1997, dated 1998).

How the values were obtained:
[1] = system: muscarinic cholinergic receptor; assay: pharmacological studies, muscarinic cholinergic receptor activity; details: stated in words only
5-HT1C receptor = biological target: T1, 5-HT1C receptor (Homo sapiens, UniProt P28335); assay: pharmacological studies, 5-HT1C receptor activity; details: stated in words only
T1 sequence (P28335 33-458): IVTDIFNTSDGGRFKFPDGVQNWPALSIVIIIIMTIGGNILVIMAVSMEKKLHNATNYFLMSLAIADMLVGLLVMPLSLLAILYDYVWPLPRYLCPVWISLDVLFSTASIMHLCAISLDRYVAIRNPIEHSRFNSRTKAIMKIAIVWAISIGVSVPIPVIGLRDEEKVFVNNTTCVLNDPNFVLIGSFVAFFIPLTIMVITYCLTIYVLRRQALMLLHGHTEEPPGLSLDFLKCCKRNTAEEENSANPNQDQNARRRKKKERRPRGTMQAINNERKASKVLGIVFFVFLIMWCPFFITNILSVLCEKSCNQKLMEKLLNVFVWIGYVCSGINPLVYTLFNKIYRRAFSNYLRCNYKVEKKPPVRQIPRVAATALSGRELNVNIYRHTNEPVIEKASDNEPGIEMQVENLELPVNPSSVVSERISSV

cerebral focal stroke = assay: experimental stroke / cerebral ischemia models (Assays 2 and 3); format: in vivo, rats; details: general statement on "such experiments"; no data given
Protocol: The methodology for testing the compound's effect in ameliorating ischemic cell damage after transient middle cerebral artery occlusion (Zhang, et al., Stroke 26, 1438-43, 1995) is given as one example.
Male rats weighing approximately 300 grams are anesthetized with 3.5% halothane and maintained with 1.0% halothane in 70% N2O and 30% O2 with the use of a face mask. Rectal remperature is maintained at 37°C throughout the surgical procedure. The right femoral artery and vein are cannulated for measuring blood gases before inducing ischemia, monitoring blood pressure during the surgery and administering compound.
Approximately 18 mm of 4-0 surgical nylon suture with a rounded tip is advanced from the external carotid artery into the lumen of the internal carotid artery until it blocks the origin of the middle cerebral artery (MCA). […] Infarct volume is measured blindly with the use of a Global Lab Image analysis program (Data Translation). The infarct area and the ipsilateral and contralateral hemispheric area are calculated in square millimeters by tracing the right and left hemispheres and the ischemic lesion on the computer screen. The volumes in cubic millimeters are determined by multiplying the area by the section interval thickness. Infarct volume is analyzed as a percentage of the whole hemisphere. […]

Compound: Cc1cc2c(s1)Nc1ccccc1N=C2N1CCN(C)CC1 [olanzapine, 2-methyl-4-(4-methyl-1-piperazinyl)-10H-thieno [2,3-b] [1,5] benzodiazepine]
- muscarinic cholinergic receptor activity [1]: has muscarinic cholinergic receptor activity
- active at the 5-HT1C receptor (5-HT1C receptor): active
- effect in the treatment or inhibition of cerebral focal stroke (cerebral focal stroke): significant effect
